# In patent US20250163016A1, “PYRIDINE DERIVATIVE, PREPARATION METHOD THEREFOR AND USE THEREOF” (CHENGDU EASTON BIOPHARMACEUTICALS CO., LTD., priority 2022, published 2025):
# Columns and labels:
# [1] = Liver microsome stability, mice; type: in vitro ADME; settings: Mice liver microsomes; for CLint scaled / half-life: mouse; for half-life: NADPH, 37° C.
# Procedure: (§1) A liver microsome in-vitro warm incubation method used liver microsomes, supplemented by an NADPH regeneration system, to simulate physiological environmental conditions in vitro for metabolic reaction, after a certain period of reaction, LC-MS/MS was used to determine prototype drugs and metabolites in a warm incubation solution, and the content was preliminarily analyzed. Studying the liver microsome stability of drugs in different species was crucial for understanding a change process of the drugs in vivo.
# (§2) 2.1. Liver Microsomes in Different Species Including Rats, Mice, Humans, Dogs and Monkeys
# (§3) According to the requirements of the instructions of a Phase I Metabolic Stability Kit, a liver microsome incubation system was prepared, and according to a sequence, a mixed system of a PBS, liver microsomes, an NADPH regeneration system solution A and an NADPH regeneration system solution B, as well as substances to be tested were added in sequence respectively, and were incubated at 37° C. Each sample was parallelized 3 times, with a sample without an NADPH generation system as a negative control, after 0, 5, 15, 30, 45, and 60 min, equal volumes of pre-cooled acetonitrile were added to terminate the reaction respectively, and the prototype drug content in a warm incubation solution was determined by LC-MS/MS.
# [2] = Liver microsome stability, humans; type: in vitro ADME; settings: Humans liver microsomes; for CLint scaled / half-life: human; for half-life: NADPH, 37° C.
# Procedure: as §1, §2, §3
# [3] = Liver microsome stability, monkeys; type: in vitro ADME; settings: Monkeys liver microsomes; for CLint scaled / half-life: monkey; for half-life: NADPH, 37° C.
# Procedure: as §1, §2, §3
# [4] = Liver microsome stability, dogs; type: in vitro ADME; settings: Dogs liver microsomes; for CLint scaled / half-life: dog; for half-life: NADPH, 37° C.
# Procedure: as §1, §2, §3
# [5] = Liver microsome stability, rats; type: in vitro ADME; settings: Rats liver microsomes; for CLint scaled / half-life: rat; for half-life: NADPH, 37° C.
# Procedure: as §1, §2, §3
# NCI-H1417 cells = experiment: NCI-H1417 cell proliferation inhibition test (Celltiter GLO); type: cell-based; settings: Homo sapiens, 168 h, NCI-H1417, 7 days culture
# Procedure: Research had confirmed that LSD1 played a crucial role in the occurrence process of various types of cancers, including small cell lung cancer (SCLC) and acute myeloid leukemia (AML). Therefore, a human small cell lung cancer (NCI-H1417) cell line was used to determine the ATP content in cells at different drug concentrations using a Celltiter GLO assay kit, and the cell activity was reflected by luminescence intensity. IC50 values of different compounds on the NCI-H1417 cells were calculated using inhibition rates. The inhibitory effects of the compounds in the present application on the proliferation of the NCI-H1417 cells were studied to evaluate the anti-tumor efficacy of the tested compounds at the cellular level.
# • Day 1 Cells were seeded into the 384-well cell culture plate and placed in a 37° C. 5% CO2 cell incubator to be cultured overnight. • Day 0 The compound to be tested was prepared into a 10 mM mother liquid using DMSO, starting from 1 μM, diluted by 3 folds, with 10 concentration points and double duplicate wells. A diluted compound was added into the 384-well cell culture plate and placed in a 37° C. 5% CO2 cell incubator to be cultured for 7 days. The concentration of the DMSO in a cell culture system was 0.1%. • Day 7 Celltiter GLO was added into the 384-well cell culture plate according to a volume ratio of culture system:Celltiter GLO=1:1, light-shielded oscillation was carried out on a plate oscillator for 3 min, then the cell culture plate was placed at the room temperature for 30 min with light shielded, and the plate was read using a multifunctional microplate reader chemical light emitting module.
# An inhibition percentage was calculated by utilizing luminescence intensity of the above DMSO group (with DMSO added), test group (with the tested compound and a positive control solution added) and blank group (not treating cells), a calculation formula being
# Using a logarithm of the concentration as an X axis and the percentage inhibition rate as a Y axis, a dose-response curve was fitted using a formula log(inhibitor) vs. response-Variable slope (Four parameters) of analysis software Graphpad Prism 8 to obtain the IC50 value of each compound on NCI-H1417 proliferation inhibition activity.
# [6] = Pharmacokinetics of oral administration of rats; type: in vivo; settings: male, rat, SD rats, p.o. 5.0 mg/kg, plasma
# Procedure: With SD rats as tested animals, blood drug concentrations in plasma at different moments after oral administration of the compounds of the present application by the rats in a clarification kit mode were determined using an LC-MS/MS method. Pharmacokinetic parameters of the compounds of the present application in the rats were obtained, and pharmacokinetic characteristics of the compounds were studied.
# • SD rats, male, weight 180-220 g, 3 rats per group. The animals were fed in an animal house after being purchased, an adaptation period was at least 3 days, and they were used for tests after passing quarantine.
# According to Table 4, each group of rats was given the corresponding tested drugs or positive drugs by gavage, before administration, and 15 min, 30 min, 1 h, 2 h, 4 h, 6 h, 8 h, and 24 h after administration, a fixed volume of blood was collected through eye sockets and placed in an EDTA-K2 anticoagulant tube, centrifuging was carried out at 8000 rpm for 1 min to separate plasma into a centrifuge tube, and the plasma was frozen in a −20° C. refrigerator.
# The plasma at each time point stored at −20° C. was taken out, then acetonitrile was added, after whirling at 1500 revolutions for 2 min, centrifuging was carried out for 15 min (3500 r/min), and a fixed volume of solution supernatant was taken for LC-MS/MS analysis.
# Non-compartment model fitting was carried out on pharmacokinetic behaviors of the tested compounds, and DAS3.31 software was adopted to calculate main pharmacokinetic parameters (T1/2, Tmax, Cmax, AUClast, etc.).
# [7] = tested on: HL-60 cell subcutaneous heterograft tumor; experiment: In-vivo efficacy in HL-60 cell subcutaneous heterograft tumor model; design: species or system Balb/C nu mice; settings: HL-60 xenograft, qd, p.o., 10 mg/Kg, 10 days
# Procedure: • DMEM culture medium containing 10% fetal bovine serum (FBS), 37° C., 5% CO2.
# Balb/C nu mice, female, 6-8 weeks, weight about 18-22 grams, and each mouse was subcutaneously inoculated with 0.1 mL (1×10^7 cells+matrigel) of HL-60 cells on the right side. When an average volume of tumors reached 100-200 cubic millimeters, group administration was performed, see the table below (Table 13) for administration dosages and methods. The tumor volume was measured twice a week, the weights of the mice as well as lengths and widths of tumors were recorded in each time of measurement, and the tumor volume=length×width×width/2 mm^3. When the average tumor volume of a solvent group grew to 3000 cubic millimeters or above, administration was ended, and an average tumor volume difference between a tested compound group and the solvent group was obtained via comparison. The tumor suppression effects of the compounds were evaluated with TGI (%), which could reflect a tumor growth inhibition rate.
SMILES,Remaining (T = 60 min) [1] [%],CLint scaled [1] [mL/min/kg],half-life [1] [h],Remaining (T = 60 min) [2] [%],CLint scaled [2] [mL/min/kg],half-life [2] [h],Remaining (T = 60 min) [3] [%],CLint scaled [3] [mL/min/kg],half-life [3] [h],Remaining (T = 60 min) [4] [%],CLint scaled [4] [mL/min/kg],half-life [4] [h],Remaining (T = 60 min) [5] [%],CLint scaled [5] [mL/min/kg],half-life [5] [h],IC50 (NCI-H1417 cells) [nM],AUC(0-t) [6] [ng·h/mL],Cmax [6] [ng/mL],Tmax [6] [h],half-life [6] [h],also measured
"CC(C)(O)Cn1nc(F)c2cc(-c3c(C#N)cc(N4CCC(N)CC4)nc3-c3ccc(C#N)c(F)c3)c(F)cc21 [Compound 36, 6-(4-aminopiperid-1-yl)-2-(4-cyano-3-fluorophenyl)-3-(3,6-difluoro-1-(2-hydroxyl-2-methylpropyl)-1H-indazol-5-yl)isonicotinonitrile]",75.5,< 38,> 2.42,81.7,< 8.6,> 2.42,72.1,16.9,1.84,76.3,< 13.8,> 2.42,76.1,< 17.3,> 2.42,4,769 ± 361,100 ± 54.4,4.67 ± 1.15,3.57 ± 0.34,
"COc1ccc(-c2c(-c3ccc(C#N)c(F)c3)nc(N3CCC(N)CC3)n(C)c2=O)cc1F [CC-90011, reference compound]",72.2,42.2,2.17,67.2,13.2,1.57,56.8,25,1.25,76.6,15.8,2.1,58.6,31.2,1.33,22.9,356 ± 46.5,48.9 ± 12.5,3.33 ± 2.31,1.44 ± 0.52,TGI [7]: 35.3%
"CC(C)(O)Cn1ncc2cc(-c3c(C#N)cc(N4CCC(N)CC4)nc3-c3ccc(C#N)c(F)c3)c(F)cc21 [Compound 16, 6-(4-aminopiperid-1-yl)-2-(4-cyano-3-fluorophenyl)-3-(6-fluoro-1-(2-hydroxyl-2-methylpropyl)-1H-indazol-5-yl)isonicotinonitrile]",77.8,< 38,> 2.42,70.8,< 8.6,> 2.42,62.0,19.2,1.62,76.4,< 13.8,> 2.42,72.1,< 17.3,> 2.42,2.79,561 ± 347,69.9 ± 33.5,4,3.46 ± 0.02,TGI [7]: 73.2%
